# Tests used:
# Format in all cases: functional, organism-based
# [1] = test system: Human immunodeficiency virus 1; assay: Compound was evaluated for the antiviral activity against human immunodeficiency virus-1(HIV-1)
# Human alphaherpesvirus 2 = assay: Compound was evaluated for the antiviral activity against herpes simplex virus-2(HSV-2)
# Human betaherpesvirus 5 = assay: Compound was evaluated for the antiviral activity against human cytomegalo virus(HCMV)
# Human alphaherpesvirus 3 = assay: Compound was evaluated for the antiviral activity against varicella zoster virus(VZV)
SMILES,IC50 [1],IC50 (Human alphaherpesvirus 2),IC50 (Human betaherpesvirus 5),IC50 (Human alphaherpesvirus 3)
CCc1cn([C@H]2C[C@H](O)[C@@H](CO)S2)c(=O)[nH]c1=O,> 100 µM,2.3 µM,> 100 µM,0.76 µM
CCc1cn([C@@H]2C[C@@H](O)[C@H](CO)S2)c(=O)[nH]c1=O,> 50 µM,> 50 µM,> 100 µM,> 40 µM
